Results on 64 compounds are retold here after article PMC8041284, “Tunable Methacrylamides for Covalent Ligand Directed Release Chemistry” (Journal of the American Chemical Society, 2021).

The target of the experiment is BTK (Homo sapiens, UniProt Q06187). As to the kind of experiment: biochemical. The settings on record: read-out: BTK inhibition (%), 0.75 uM BTK, […] probe 3l, 15 min preincubation.
Chain of BTK (Q06187 402-655 limits assumed): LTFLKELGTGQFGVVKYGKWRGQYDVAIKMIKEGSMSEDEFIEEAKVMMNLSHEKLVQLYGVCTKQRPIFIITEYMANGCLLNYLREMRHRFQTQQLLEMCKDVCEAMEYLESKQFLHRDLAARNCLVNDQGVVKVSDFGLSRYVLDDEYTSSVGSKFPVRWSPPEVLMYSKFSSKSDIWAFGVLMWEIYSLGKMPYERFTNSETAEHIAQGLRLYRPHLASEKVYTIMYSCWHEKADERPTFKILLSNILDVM

Broadly, the inhibition is the drop in the measured response relative to a control, in per cent. With `NC(=O)[C@H](CCCN=C(N)CCl)NC(=O)c1ccccc1` [PCM-0215816], the inhibition at 10 µM is -5.5%.
On to `COc1ccc(S(=O)(=O)NCc2ccc(C(=O)NCCc3ccc(Cl)cn3)cc2)cc1` [PCM-0215817], for which the inhibition at 10 µM is -22.4%.
As for `O=C(NC1(c2ccccc2)CC1)c1c(CN2CCC(N3CCCCC3)CC2)c(-c2cccc(C(F)(F)F)c2)nc2cc(Br)ccc12` [PCM-0215818], the figure is 36.3%; as for `C[C@@H](N)C(=O)N[C@@H](CO)C(=O)N[C@H](C(=O)N[C@H](C(=O)N[C@H](C(=O)N[C@@H](CC(N)=O)C(=O)N[C@@H](Cc1ccc(O)cc1)C(=O)N[C@H](C(N)=O)[C@@H](C)O)[C@@H](C)O)[C@@H](C)O)[C@@H](C)O` [PCM-0215819], 11.1%.
With `C=CC(=O)N1CC/C(=C\c2ccc(F)c([N+](=O)[O-])c2)C(=O)/C(=C/c2ccc(F)c([N+](=O)[O-])c2)C1` [PCM-0215820], the inhibition at 10 µM amounted to 31.7%.
As for `NC(=O)/C(=C/n1cnc(-c2cc(C(F)(F)F)cc(C(F)(F)F)c2)n1)c1cncnc1` [PCM-0215821], the figure is -10%.
As to `CC[C@H](C)[C@H](N)C(=O)N[C@H]1CSSC[C@@H](C(=O)N[C@H](C(N)=O)[C@@H](C)O)NC(=O)[C@H](CCCN=C(N)N)NC(=O)[C@H](Cc2cnc[nH]2)NC(=O)[C@H](Cc2cnc[nH]2)NC(=O)CNC(=O)[C@H](Cc2c[nH]c3ccccc23)NC(=O)[C@H](CC(=O)O)NC(=O)[C@H](CCC(N)=O)NC(=O)[C@H](C(C)C)NC(=O)[C@H](C(C)C)NC1=O` [PCM-0215822], the inhibition at 10 µM is -3.4%.
As for `C=CC(=O)N1CC(N2CCN(C(=O)CNc3cc(C4(C)CC4)c(Cl)cc3O)CC2)C1` [PCM-0215823], the figure is -9.3%; as for `CN[C@@H](C)C(=O)N[C@H](C(=O)N1CCC[C@H]1C(=O)N[C@H]1c2ccccc2C[C@H]1OCC#CC#CCO[C@@H]1Cc2ccccc2[C@@H]1NC(=O)[C@@H]1CCCN1C(=O)[C@@H](NC(=O)[C@H](C)NC)C1CCCCC1)C1CCCCC1` [PCM-0215824], 2.6%; as for `CC[C@@H](N)CNc1ccnc(-c2cc(-c3cnn(C)c3)ccc2O)n1` [PCM-0215825], 2.8%.
Consider `O=c1nc(N2CCOCC2)oc2c(-c3cccc4c3sc3ccccc34)cccc12` [PCM-0215826], for which the inhibition at 10 µM was -1.4%.
As for `CC(=O)N[C@@H](CC(=O)O)C(=O)N[C@@H](CCC(=O)O)C(=O)N[C@H](C(=O)N[C@H](C=O)CC(=O)O)C(C)C` [PCM-0215827], the figure is -7.7%; as for `CC(C)n1nc(-c2ccc(NC(=O)Nc3cc(C(F)(F)F)ccc3F)cc2)c2c(N)ncnc21` [PCM-0215828], 106%; as for `Cc1cc(C)cc(Oc2ccc(CNC(=O)[C@H](C)N)cc2C)c1` [PCM-0215829], -17.8%.
As for `COc1cc2nccc(Oc3ccc(NC(=O)c4cn(C(C)C)c(=O)n(-c5ccc(F)cc5)c4=O)cc3F)c2cc1OC` [PCM-0215831], the figure is 12.4%; as for `CC(C)n1ncnc1-c1cn2c(n1)-c1ccc(O[C@@H](C)C(N)=O)cc1OCC2` [PCM-0215832], -8.3%; as for `CS(=O)(=O)n1cc2c(n1)CN([C@H]1CO[C@H](c3cc(F)ccc3F)[C@@H](N)C1)C2` [PCM-0215833], 4.6%.
As for `N#Cc1ccc2ncnc(NCCc3ccccc3)c2c1` [PCM-0215834], the figure is -30.3%; as for `C=C(Cc1ccccc1Cl)C(=O)OCC` [PCM-0215835], -4.1%; as for `CC(C)(CNC(=O)c1cccc(-c2noc(C(F)(F)F)n2)c1)c1coc(-c2ccccc2)n1` [PCM-0215836], -30.9%.
As to `Cc1[nH]nc2ncc(C(=O)N3CCC[C@H]3c3ccc(Cl)cc3)cc12` [PCM-0215837], the inhibition at 10 µM is 6.2%.
`COCCNCc1ccc(-c2cc3nccc(Oc4ccc(NC(=O)C5(C(=O)Nc6ccc(F)cc6)CC5)cc4F)c3s2)nc1` [PCM-0215838]: the inhibition at 10 µM is 81.4%.
As for `CCCCS(=O)(=O)N[C@@H](Cc1ccc(OCCCCC2CCNCC2)cc1)C(=O)O` [PCM-0215839], the figure is -1.5%; as for `O=C1OC(COc2ccccc2[N+](=O)[O-])CC1Cc1ccccc1` (stereo not shown) [PCM-0215840], -3.1%.
On to `O=C(O)c1cc(C(=O)O)c(C(=O)N(Cc2cccc(Oc3ccccc3)c2)[C@H]2CCCc3ccccc32)cc1C(=O)O` [PCM-0215841], for which the inhibition at 10 µM was found to be 13.1%.
As for `CN1C(=O)[C@@H](NC(=O)c2n[nH]c(Cc3ccccc3)n2)COc2ccccc21` [PCM-0215843], the inhibition at 10 µM came to 6.2%.
As for `CCN(CC)CCNC(=O)c1c(C)[nH]c(/C=C2\C(=O)Nc3ccc(-c4csc(-c5ccccc5)n4)cc32)c1C` [PCM-0215844], the figure is 29%; as for `O=c1cc(N2CCOCC2)oc2c(-c3ccc4c(c3)OCCO4)csc12` [PCM-0215845], 23.4%.
As for `C[C@H](NC(=O)c1c(N)nn2cccnc12)c1cc2cccc(C#Cc3cnn(C)c3)c2c(=O)n1-c1ccccc1` [PCM-0215846], the figure is 20%.
As for `CC(C)n1nccc1-c1ncccc1COc1cccc(O)c1C=O` [PCM-0215847], the figure is -13.1%.
Take `O=C(NCCN1CCOCC1)Nc1ccc(C(=O)/C=C/c2cccc(N3CCOCC3)n2)cc1` [PCM-0215849]: the inhibition at 10 µM was -0.8%.
As for `O=C(c1ccccc1O)c1[nH]c(Cl)c(Cl)c1-n1c(C(=O)c2ccccc2O)cc(Cl)c1Cl` [PCM-0215850], the figure is 117%; as for `CC(C)(CO)n1cc(C(=O)c2cncc(NC(=O)Cc3ccc(Cl)cn3)c2)c2cnc(N)nc21` [PCM-0215853], 5.5%; as for `O=C(O)CCn1c(O)c(C2=c3cc(Cl)ccc3=NC2=O)sc1=S` [PCM-0215854], 0.8%.
On to `CCc1ccc(Cc2ccc3c(c2)[C@]2(OC3)O[C@H](CO)[C@@H](O)[C@H](O)[C@H]2O)cc1` [PCM-0215855], for which the inhibition at 10 µM worked out at 5.4%.
As for `Nc1nc2cc(-c3ccc4ncc(C(=O)N5CCOCC5)n4c3)ccc2o1` [PCM-0215857], the figure is 21.4%; as for `O=C(O)C(Cl)Cl` [PCM-0215858], -8.5%; as for `CC(C)NC(=O)C1CCC(n2c(NC(=O)c3ccc(F)cc3)nc3ccc(CN4CCC(C(C)(C)O)CC4)cc32)CC1` (stereo not shown) [PCM-0215859], 53.1%.
On to `NCCOc1ccc(Cl)cc1C(=O)Nc1ccc([N+](=O)[O-])cc1Cl` [PCM-0215860], for which the inhibition at 10 µM was found to be 7.7%.
As for `Cc1cc(Nc2cc(Cl)nc(Oc3ccc([N+](=O)[O-])cc3)n2)n[nH]1` [PCM-0215861], the figure is 12.4%.
As for `O=S(=O)(NC1CCCCC1)c1ccc2c(c1)C(=NO)c1cc(S(=O)(=O)NC3CCCCC3)ccc1-2` [PCM-0215862], the figure is 1.5%; as for `C=CC(=O)N1CCN(CCCn2c(=O)c(-c3c(Cl)c(OC)cc(OC)c3Cl)cc3cnc(NC)nc32)CC1` [PCM-0215863], 6.2%.
As for `C[C@@H](Nc1nc(N[C@H](C)C(F)(F)F)nc(-c2cccc(Cl)n2)n1)C(F)(F)F` [PCM-0215864], the figure is -3.9%.
`NC(=O)c1ccc(OCCCN2CC3CCCC3C2)cc1` (stereo not shown) [PCM-0215865]: the inhibition at 10 µM was 6.2%.
As for `CCc1nc(C(N)=O)c(Nc2ccc(N3CCC(N4CCN(C)CC4)CC3)c(OC)c2)nc1NC1CCOCC1` [PCM-0215866], the figure is 73.8%; as for `Cc1cc(C)nc(NC(=S)N2CCN(Cc3ccc(C(F)(F)F)cc3)CC2)c1` [PCM-0215867], -17%; as for `Nc1ccc(F)cc1NC(=O)c1ccc(CNC(=O)/C=C/c2cccnc2)cc1` [PCM-0215868], -5.4%.
As for `CCCC(=O)NCCc1csc(-c2ccc(Cl)cc2)n1` [PCM-0215869], the figure is 2.3%; as for `OC[C@H]1O[C@@H](c2ccc(F)c(Cc3cc4ccccc4s3)c2)[C@H](O)[C@@H](O)[C@@H]1O` [PCM-0215870], 1.5%; as for `c1cncc(-c2cn[nH]n2)c1` [PCM-0215871], 15.4%.
As for `Cc1cc(C)c(CN2CCc3c(Cl)cc(-c4c(C)noc4C)c(Cl)c3C2=O)c(=O)[nH]1` [PCM-0215872], the figure is -8.5%.
As for `Cc1ccc(NCCN(C)CCNc2ccnc3cc(Cl)ccc23)c2c(=O)c3ccccc3sc12` [PCM-0215874], the inhibition at 10 µM is 6.8%.
As for `Cn1nccc1Nc1nccc(-c2cc3c(s2)C(C)(C)N(CCN2CCOCC2)C3=O)n1` [PCM-0215875], the figure is 6.9%; as for `C[N+](C)(C)CCOP(=O)(O)OP(=O)([O-])OC[C@H]1O[C@@H](n2ccc(N)nc2=O)[C@H](O)[C@@H]1O` [PCM-0215877], -17.9%.
As for `C[N+](C)(C)CCOP(=O)([O-])OP(=O)(O)OC[C@H]1O[C@@H](n2ccc(N)nc2=O)[C@H](O)[C@@H]1O` [PCM-0215877], the figure is 0.9%; as for `Nc1nc(-c2ccco2)c2cnn(Cc3ccccc3F)c2n1` [PCM-0215878], 5.4%; as for `COCCNC(=O)Nc1ccc2nc(-c3cccs3)c(-c3cccs3)nc2c1` [PCM-0215879], 6.9%.
As for `O=P(O)(O)OC(CO)CO` [PCM-0215880], the inhibition at 10 µM amounted to 11.9%.
As for `O=C(O)c1c[nH]c2cc(Cl)c(-c3ccc(C4(O)CCC4)cc3)cc12` [PCM-0215881], the figure is 24.7%; as for `CC(C)Cc1ccc([C@@H](C)C(=O)NS(C)(=O)=O)cc1` [PCM-0215882], -24.8%.
For the compound `CC1=C(CSC(=S)N2CCCCC2)C(=O)c2ccccc2C1=O` [PCM-0215883], the inhibition at 10 µM turned out to be 21.6%.
As for `CC(=O)N[C@@H]1[C@@H](O[C@@H]2O[C@H](C(=O)O)[C@@H](O)[C@H](O)[C@H]2O)[C@@H](O)[C@@H](OS(=O)(=O)O)O[C@H]1O` [PCM-0215884], the figure is -22.1%; as for `CN1CCN(C(=O)c2ccc(-c3ccc4c(C=O)c(O)ccc4c3)s2)CC1` [PCM-0215885], 77.2%.
Turning to `CSCCNc1nc(SCCC(F)(F)F)nc2c1ncn2[C@@H]1O[C@H](COP(=O)(O)OP(=O)(O)C(Cl)(Cl)P(=O)(O)O)[C@@H](O)[C@H]1O` [PCM-0215886], the inhibition at 10 µM was -50.2%.
